Source: PubChem BioAssay AID2060910 (Molecular Pharmacology Branch, DTP, NCI, 2025)
Values belong to the compound of their own block, whether it stands above or below them.

Tested on: 242566-281-R-J2-PDC complex spheroid viability
Test: Anticancer human tumor 242566-281-R-J2-PDC patient-derived pancreatic carcinoma cell line growth inhibition [RAS]
Settings: for IC50: curve of first compound; for viability, T/C: stronger effect = lower value
Summary of the method: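 Agents were tested in combination matrices in half-log decrements from a top concentration at or near clinical Cmax (10 microM if undetermined). Targets were multi-cell spheroids of tumour lines plus HUVEC and MSC stromal cells.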

[1] = second compound 0.0316 µM, first compound 0.00316 µM
[2] = second compound 0.0316 µM, first compound 0.01 µM
[3] = second compound 0.0316 µM, first compound 0.0316 µM
[4] = second compound 0.0316 µM, first compound 0.1 µM
[5] = second compound 0.0316 µM, first compound 0.316 µM
[6] = second compound 0.0316 µM, first compound 1 µM
[7] = second compound 0.1 µM, first compound 0.00316 µM
[8] = second compound 0.1 µM, first compound 0.01 µM
[9] = second compound 0.1 µM, first compound 0.0316 µM
[10] = second compound 0.1 µM, first compound 0.1 µM
[11] = second compound 0.1 µM, first compound 0.316 µM
[12] = second compound 0.1 µM, first compound 1 µM
[13] = second compound 0.316 µM, first compound 0.00316 µM
[14] = second compound 0.316 µM, first compound 0.01 µM
[15] = second compound 0.316 µM, first compound 0.0316 µM
[16] = second compound 0.316 µM, first compound 0.1 µM
[17] = second compound 0.316 µM, first compound 0.316 µM
[18] = second compound 0.316 µM, first compound 1 µM
[19] = second compound 1 µM, first compound 0.00316 µM
[20] = second compound 1 µM, first compound 0.01 µM
[21] = second compound 1 µM, first compound 0.0316 µM
[22] = second compound 1 µM, first compound 0.1 µM
[23] = second compound 1 µM, first compound 0.316 µM
[24] = second compound 1 µM, first compound 1 µM
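Also: spheroids exposed to compound for 7 days before readout.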
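For viability, T/C in this document: 100% = DMSO vehicle control wells.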

IC50 (second compound 0.00316 µM): > 1000 nM | IC50 (second compound 0.01 µM): > 1000 nM | IC50 (second compound 0.0316 µM): > 1000 nM | IC50 (second compound 0.1 µM): > 1000 nM | IC50 (second compound 0.316 µM): > 1000 nM | IC50 (second compound 1 µM): > 1000 nM
Structure (SMILES): C=CC(=O)Nc1cc(Nc2nccc(-c3cn(C)c4ccccc34)n2)c(OC)cc1N(C)CCN(C)C + C=CC(=O)N1CCN(c2nc(OCC3CCCN3C)nc3c(F)c(-c4nc(N)cc(C)c4C(F)(F)F)c(Cl)cc23)C(C)C1
viability, T/C (second compound 0.00316 µM, first compound 0.00316 µM): 95.1% | viability, T/C (second compound 0.00316 µM, first compound 0.01 µM): 133% | viability, T/C (second compound 0.00316 µM, first compound 0.0316 µM): 82.7% | viability, T/C (second compound 0.00316 µM, first compound 0.1 µM): 74.5% | viability, T/C (second compound 0.00316 µM, first compound 0.316 µM): 80.5% | viability, T/C (second compound 0.00316 µM, first compound 1 µM): 85.7% | viability, T/C (second compound 0.01 µM, first compound 0.00316 µM): 97.6% | viability, T/C (second compound 0.01 µM, first compound 0.01 µM): 138% | viability, T/C (second compound 0.01 µM, first compound 0.0316 µM): 86.7% | viability, T/C (second compound 0.01 µM, first compound 0.1 µM): 93.4% | viability, T/C (second compound 0.01 µM, first compound 0.316 µM): 86.1% | viability, T/C (second compound 0.01 µM, first compound 1 µM): 84.8% | viability, T/C [1]: 109% | viability, T/C [2]: 121% | viability, T/C [3]: 90.7% | viability, T/C [4]: 91% | viability, T/C [5]: 79.8% | viability, T/C [6]: 78.3% | viability, T/C [7]: 105% | viability, T/C [8]: 136% | viability, T/C [9]: 103% | viability, T/C [10]: 95.4% | viability, T/C [11]: 78.9% | viability, T/C [12]: 76.8% | viability, T/C [13]: 104% | viability, T/C [14]: 121% | viability, T/C [15]: 96.4% | viability, T/C [16]: 79.2% | viability, T/C [17]: 95.3% | viability, T/C [18]: 87.2% | viability, T/C [19]: 108% | viability, T/C [20]: 129% | viability, T/C [21]: 81% | viability, T/C [22]: 112% | viability, T/C [23]: 83.7% | viability, T/C [24]: 89.8%

IC50 (second compound 0.0316 µM): 114 nM | IC50 (second compound 0.1 µM): 70.8 nM | IC50 (second compound 0.316 µM): 88.1 nM | IC50 (second compound 1 µM): 25.2 nM | IC50 (second compound 3.16 µM): 22.2 nM | IC50 (second compound 10 µM): 16.1 nM
Structure (SMILES): C=CC(=O)Nc1cc(Nc2nccc(-c3cn(C)c4ccccc34)n2)c(OC)cc1N(C)CCN(C)C + C#Cc1c(F)ccc2cc(O)cc(-c3ncc4c(N5CC6CCC(C5)N6)nc(OCC56CCCN5CC(F)C6)nc4c3F)c12
viability, T/C [1]: 81.2% | viability, T/C [2]: 115% | viability, T/C [3]: 80.8% | viability, T/C [4]: 52.9% | viability, T/C [5]: 43.1% | viability, T/C [6]: 37.9% | viability, T/C [7]: 80.3% | viability, T/C [8]: 85.2% | viability, T/C [9]: 60.7% | viability, T/C [10]: 46.9% | viability, T/C [11]: 41.3% | viability, T/C [12]: 35.2% | viability, T/C [13]: 77.6% | viability, T/C [14]: 75.2% | viability, T/C [15]: 66% | viability, T/C [16]: 47.1% | viability, T/C [17]: 40.7% | viability, T/C [18]: 35.3% | viability, T/C [19]: 68.3% | viability, T/C [20]: 60.2% | viability, T/C [21]: 46.7% | viability, T/C [22]: 42.1% | viability, T/C [23]: 36.4% | viability, T/C [24]: 38.5% | viability, T/C (second compound 3.16 µM, first compound 0.00316 µM): 60.2% | viability, T/C (second compound 3.16 µM, first compound 0.01 µM): 58.6% | viability, T/C (second compound 3.16 µM, first compound 0.0316 µM): 48% | viability, T/C (second compound 3.16 µM, first compound 0.1 µM): 41% | viability, T/C (second compound 3.16 µM, first compound 0.316 µM): 36.1% | viability, T/C (second compound 3.16 µM, first compound 1 µM): 37.7% | viability, T/C (second compound 10 µM, first compound 0.00316 µM): 57.1% | viability, T/C (second compound 10 µM, first compound 0.01 µM): 57.1% | viability, T/C (second compound 10 µM, first compound 0.0316 µM): 44.6% | viability, T/C (second compound 10 µM, first compound 0.1 µM): 40.1% | viability, T/C (second compound 10 µM, first compound 0.316 µM): 39.8% | viability, T/C (second compound 10 µM, first compound 1 µM): 36.7%

IC50 (second compound 0.000949 µM): < 31.6 nM | IC50 (second compound 0.003 µM): < 31.6 nM | IC50 (second compound 0.00949 µM): < 31.6 nM | IC50 (second compound 0.03 µM): < 31.6 nM | IC50 (second compound 0.0949 µM): < 31.6 nM | IC50 (second compound 0.3 µM): < 31.6 nM
Structure (SMILES): CC(=O)OC12COC1CC(O)C1(C)C(=O)C(O)C3=C(C)C(OC(=O)C(O)C(NC(=O)OC(C)(C)C)c4ccccc4)CC(O)(C(OC(=O)c4ccccc4)C21)C3(C)C (stereo unspecified) + CCn1c(-c2cccnc2C(C)OC)c2c3cc(ccc31)N1CCOC(CC(NC(=O)C(C(C)C)N(C)C(=O)C3(F)CCN(C(=O)C#CC(C)(C)N(C)C)CC3)C(=O)N3CCCC(N3)C(=O)OCC(C)(C)C2)C1
viability, T/C (second compound 0.000949 µM, first compound 0.0316 µM): 47.2% | viability, T/C (second compound 0.000949 µM, first compound 0.1 µM): 33.6% | viability, T/C (second compound 0.000949 µM, first compound 0.316 µM): 26.5% | viability, T/C (second compound 0.000949 µM, first compound 1 µM): 35.8% | viability, T/C (second compound 0.000949 µM, first compound 3.16 µM): 40.1% | viability, T/C (second compound 0.000949 µM, first compound 10 µM): 38.8% | viability, T/C (second compound 0.003 µM, first compound 0.0316 µM): 40.7% | viability, T/C (second compound 0.003 µM, first compound 0.1 µM): 30.1% | viability, T/C (second compound 0.003 µM, first compound 0.316 µM): 32.4% | viability, T/C (second compound 0.003 µM, first compound 1 µM): 35.7% | viability, T/C (second compound 0.003 µM, first compound 3.16 µM): 40.7% | viability, T/C (second compound 0.003 µM, first compound 10 µM): 33.9% | viability, T/C (second compound 0.00949 µM, first compound 0.0316 µM): 46.7% | viability, T/C (second compound 0.00949 µM, first compound 0.1 µM): 32.3% | viability, T/C (second compound 0.00949 µM, first compound 0.316 µM): 35.8% | viability, T/C (second compound 0.00949 µM, first compound 1 µM): 37.7% | viability, T/C (second compound 0.00949 µM, first compound 3.16 µM): 35.9% | viability, T/C (second compound 0.00949 µM, first compound 10 µM): 34.9% | viability, T/C (second compound 0.03 µM, first compound 0.0316 µM): 43.2% | viability, T/C (second compound 0.03 µM, first compound 0.1 µM): 33.9% | viability, T/C (second compound 0.03 µM, first compound 0.316 µM): 31.8% | viability, T/C (second compound 0.03 µM, first compound 1 µM): 34.6% | viability, T/C (second compound 0.03 µM, first compound 3.16 µM): 29.3% | viability, T/C (second compound 0.03 µM, first compound 10 µM): 43.4% | viability, T/C (second compound 0.0949 µM, first compound 0.0316 µM): 36.9% | viability, T/C (second compound 0.0949 µM, first compound 0.1 µM): 34.5% | viability, T/C (second compound 0.0949 µM, first compound 0.316 µM): 31.4% | viability, T/C (second compound 0.0949 µM, first compound 1 µM): 33.2% | viability, T/C (second compound 0.0949 µM, first compound 3.16 µM): 27.9% | viability, T/C (second compound 0.0949 µM, first compound 10 µM): 40.3% | viability, T/C (second compound 0.3 µM, first compound 0.0316 µM): 26.3% | viability, T/C (second compound 0.3 µM, first compound 0.1 µM): 27% | viability, T/C (second compound 0.3 µM, first compound 0.316 µM): 26.2% | viability, T/C (second compound 0.3 µM, first compound 1 µM): 20.2% | viability, T/C (second compound 0.3 µM, first compound 3.16 µM): 27% | viability, T/C (second compound 0.3 µM, first compound 10 µM): 29.4%
